The conditions of series [1]: cited from earlier work.
Series [2] concerns HPA axis.
Protocol: (§1) Each of 39 normal human subjects was hospitalized on a clinical pharmacology ward for the entire time (14 days) while the procedures described herein were carried out.
(§2) The following tests were performed, except as otherwise indicated in Table II below, on each of the subjects:
Metyrapone (METP) test, according to a modification of the method described by Liddle et al., J. Clin. Endocr. […] The urine of each of the subjects was collected at 6 hour intervals during the entire 14 day period and analyzed for 17-ketogenic steroids for the METP test.
On each of days 5-11 the various corticosteroids were orally administered, all subjects receiving their daily single dosage of corticosteroids at 6 A.M. Tabulated below, in Table II, are the numbers of subjects receiving a particular dosage per day of a particular corticosteroid.
A short description of series [3]: Metabolic effects: loss of urinary nitrogen and calcium. As to the method:
Four normal subjects were admitted to a hospital metabolic ward and maintained on a constant diet for days 1-3, the equilibration period.
On days 4-9, the control period, the subjects were also kept on the same constant diet and their urine was collected every 24 hours and assayed for nitrogen and calcium, determined fluorometrically using the method of Henry, R. J., Clinical Chemistry Principles and Techniques, 3rd Edition, p.
On days 10-15, the treatment period, the subjects were still kept on the same constant diet, and 20 mg. (three subjects, 1, 2 and 3) and 12.5 mg. (one subject, 4) of 6-chloro-11β,17α,21-trihydroxypregna-1,4-diene-3,20-dione were daily orally administered in a single dose. The urine of the subjects was collected every 24 hours and assayed for nitrogen and calcium.
After 8 weeks had elapsed, subjects 1 and 2 were readmitted to the hospital metabolic ward.

For series [4], the system named is HPA axis. The settings on record: oral, 6 A.M., 7 days.
Protocol: as §1, §2
On each of days 5-11 the various corticosteroids were orally administered, all subjects receiving their daily single dosage of corticosteroids at 6 A.M. Tabulated below, in Table II, are the numbers of subjects receiving a particular dosage per day of a particular corticosteroid. The dosage regimens chosen reflect the relative potencies of the corticosteroids tested.
For series [5] the following is noted: human, in vivo. As to the method:
The plasma of each volunteer was analyzed for organic solvent extractable radioactivity over a 24 hour period.

For series [6] the following is noted: described in U.S. Pat. No. 3,232,965; cited from earlier work.
The subject of series [7] is HPA axis. The settings on record: in vivo. As to the method:
1. Fasting plasma cortisol level at 6 A.M. on each of days 1-14, according to the method of Murphy et al., J. Clin. Endocr.
3. […] The urine of each of the subjects was collected at 6 hour intervals during the entire 14 day period and analyzed for 17-ketogenic steroids for the METP test.

Like-named read-outs stand apart in the source and are kept apart here. Bounds are passed on as bounds.

The values below come from patent US4051241A.

As to `C[C@]12C=CC(=O)C=C1CC[C@H]1[C@@H]3C[C@@H](O)[C@](O)(C(=O)CO)[C@@]3(C)C[C@H](O)[C@@]12F` [9α-Fluoro-16α-hydroxyprednisolone, 9α-fluoro-11β,16α,17α,21-tetrahydroxypregna-1,4-diene-3,20-dione], in series [1] (in vivo), the “Plasma Half-Life” value was at least 3.33 h.
For `C[C@H]1C[C@H]2[C@@H]3CCC4=CC(=O)C=C[C@]4(C)[C@@]3(F)[C@@H](O)C[C@]2(C)[C@@]1(O)C(=O)CO` [9α-Fluoro-16β-methylprednisolone], the “subjects showing a normal metyrapone test” value in series [2] (in vivo) was “none”.
In the case of `C[C@]12C=CC(=O)C=C1CC[C@@H]1[C@@H]2[C@@H](O)C[C@@]2(C)[C@H]1CC[C@]2(O)C(=O)CO` [Prednisolone], the “Normal/Total METP Response” value in series [2] (25.0 mg per day, oral, 6 A.M., 7 days) is listed as 3/3. The “loss of nitrogen and calcium, comparison of 6-chloro compound with prednisolone” value in series [3] (equipotent doses, subjects 1 and 2) is “greater loss of both nitrogen and calcium”. The “Normal/Total A.M. Plasma Cortisol” value in series [4] (5.0 mg per day) and in series [4] (10.0 mg per day) was 3/3 in each case. Further, in series [1] (Melby, Ann. Int. Med., 81:505-512, 1974), the “Plasma Half-Life” value was at least 3.33 h.
Turning to `C[C@]12C=CC(=O)C=C1C(Cl)=C[C@@H]1[C@@H]2[C@@H](O)C[C@@]2(C)[C@H]1CC[C@]2(O)C(=O)CO`, in series [5], the Plasma Half-Life is 2 h; the “half-life, volunteer No. 1” value was “approximately 110 minutes”; the “half-life, volunteer No. 2” value is “approximately 125 minutes”. Also, the “loss of nitrogen and calcium, comparison of 6-chloro compound with prednisolone” value in series [3] (in vivo) was “minimized”. In addition, the action result in series [6] is “cortisone like (anti-inflammatory) action”. Moreover, in series [7], the “unwanted side-effects associated with HPA axis suppression” value was “not present”.
